From patent US20140171438A1, “Hybrid Compounds And Methods Of Making And Using The Same” (CELLCEUTIX CORPORATION, priority 2012, published 2014)
Converted amounts (≈) assume the structure as drawn.

What was measured:
E. Coli ATCC 25922 = experiment: Antimicrobial activity, MIC, modified microbroth dilution; type: cell-based; conditions: Escherichia coli, ATCC25922; E. coli (25922); 18 hours incubation; read-out: MIC (expressed as MIC50) E. coli
Experimental: (§1) The compounds were screened for antimicrobial activity against a number of ATCC bacterial strains. Minimum Inhibitory Concentrations (MIC) of each of the compounds were determined using standard CLSI procedures modified by Hancock protocol against E. Coli ATCC 25922, Staphylococcus aureus ATCC 27660, Enterococcus faecalis ATCC 29212, Pseudomonas aeruginosa ATCC 10145, and Klebsiella pneumoniae ATCC 13883.
(§2) This procedure is a modification of the standard microbroth dilution assay recommended by the National Committee for Clinical Laboratory Standards (NCCLS) which has been developed for determining in vitro antimicrobial activities of cationic agents (Steinberg et al., Antimicrob. Agents Chemother., 1997, 41, 1738; and Yan et al., Antimicrob. Agents Chemother., 2001, 45, 1558). The modifications were made to minimize loss of the antimicrobial agent due to adsorption onto glass or plastic surfaces and by precipitation at high concentrations.
(§3) Three mL of Mueller-Hinton II Broth (cation-adjusted) was inoculated with 5 μL of frozen bacterial stock and incubated at 37° C. on a shaker platform (at 250 rpm) overnight. Compound stock solutions were prepared in DMSO and serial two-fold dilutions of compound were made in 0.01% acetic acid, 0.2% bovine serum albumin directly in the wells of the polypropylene plate at 10 μL/well. […] All samples were performed in duplicate. The overnight bacteria suspension was diluted to approximately 10^6 cfu/mL and inoculated into a polypropylene (Costar) 96-well round bottom plate (90 μL volumes). One set of control wells included broth-only samples with dilution buffer for testing sterility and providing blank values for the assay readings. Vehicle-control wells containing the bacterial suspension with DMSO (no compound) were also included. Following the overnight incubation (18 hours), cell growth was assessed by observing the presence of “acceptable growth”, defined by NCCLS as a ≧2 mm button or definite turbidity.
(§4) Actual results from a representative MIC assay are shown below in Table 1. Data is expressed as MIC50 in μg/mL. The bacterial isolates were as follows: E. coli (25922); S. aureus (27660); E. faecalis (29212); P. aeruginosa (10145); and K. pneumoniae (13883).

[1] = tested on: Enterococcus faecalis ATCC 29212; experiment: as above; type: cell-based; conditions: ATCC29212, E. faecalis (29212), 18 hours incubation, read-out: MIC (expressed as MIC50) E. faecalis
Experimental: as §1, §2, §3, §4

[2] = tested on: Klebsiella pneumoniae ATCC 13883; experiment: as above; type: cell-based; conditions: ATCC13883, K. pneumoniae (13883), 18 hours incubation, read-out: MIC (expressed as MIC50) K. Pnuemnoiae
Experimental: as §1, §2, §3, §4

[3] = tested on: Pseudomonas aeruginosa ATCC 10145; experiment: as above; type: cell-based; conditions: ATCC10145, P. aeruginosa (10145), 18 hours incubation, read-out: MIC (expressed as MIC50) P. Aeruginosa
Experimental: as §1, §2, §3, §4

[4] = tested on: Staphylococcus aureus ATCC 27660; experiment: as above; type: cell-based; conditions: ATCC27660, S. aureus (27660), 18 hours incubation, read-out: MIC (expressed as MIC50) S. aureus
Experimental: as §1, §2, §3, §4

[5] = Cytotoxicity, colorimetric tetrazolium assay; type: cell-based; conditions: one hour with compound in serum-free media
Experimental: Cytotoxicity of the compounds was evaluated in a colorimetric assay using a transformed human liver cell line (HepG2, HB-8065) and an embryonic mouse cell line (NIH/3T3 cells, CRL-1658). This assay measures the bioreduction of a novel tetrazolium compound to a soluble formazan product by viable cells. HepG2 cells were seeded in 96 well plates at 2×10^4 cells/well in MEM medium with 10% fetal bovine serum (FBS) for 24 hours prior to use. NIH/3T3 cells were seeded in 96 well plates at 2×10^4 cells/well in DMEM medium with 10% bovine calf serum (BCS) 24 hours prior to use. Cell monolayers were rinsed in serum-free media and incubated for one hour with the compound in serum-free media. After incubation, the media was replaced with serum supplemented media and live cells were measured using the Cell Titer 96 Aqueous […] (Promega, Madison, Wis.). EC50 values were determined using a four parameter logistic equation: Y=Bottom+(Top−Bottom)/(1+10̂((Log EC50−X)*HillSlope)). Actual results from a representative cytotoxicity assay are shown below in Table 2. Data is expressed as EC50 in μg/mL.

MRSA ATCC 33591 = experiment: Anti-biofilm activity, minimum biofilm eradication concentration (MBEC); type: cell-based, Staphylococcus aureus; conditions: MRSA ATCC 33591 biofilm on filter paper disks; 24 hours challenge
Experimental: The in vitro activity against biofilm was carried out by following the protocol for biofilm development and challenge using filter paper disks and 24-well plates. On day one, a tryptic soy agar plate (TSA) was streaked for MRSA isolation. On the second day a single colony of MRSA was grown in about 5 mL of tryptic soy broth (TSB). Filter papers were punched and autoclaved in 96-well plate. On the third day, a single filter paper disk was placed in each well of 24-well plate. The plate was inoculated with 300 μL/well of 0.01 adjusted OD600 bacteria inoculum in TSB supplemented with 1% glucose and 1.6% NaCl. The cells were allowed to grow for 48 hours on a shaker at 37° C. On day five, the challenge plate(s) were made in a 24-well plate(s), using eppendorf tubes to make dilutions and aliquoted into designated wells. The wash plates were filled in each well of a 24-well plate with 500 μL 0.9% saline. The disks were removed with forceps from the growth plate to the wash plate to challenge plate, flaming in between or where needed. Once disks are in challenge plate, incubated for 24 hours on shaker at 37° C. […] On day seven, the colonies were counted.
The actual MBEC of Compound 113 against MRSA ATCC 33591 was determined to be 32 μg/mL.

[6] = mouse, NIH/3T3 cells (CRL-1658)

| SMILES | MIC50 (E. Coli ATCC 25922) | MIC50 [1] | MIC50 [2] | MIC50 [3] | MIC50 [4] | EC50 at 1 h ([5]; human, HepG2 cells (HB-8065)) | EC50 at 1 h [5, 6] | MBEC (MRSA ATCC 33591) |
| --- | --- | --- | --- | --- | --- | --- | --- | --- |
| N=C(N)NCCCCC(=O)Nc1cc(C(F)(F)F)cc(NC(=O)Nc2ccc(Oc3cc(NCCN)cc(C(F)(F)F)c3)cc2)c1SCCN [Compound 106, (4-(2-(2-aminoethylthio)-3-(3-(4-(3-(2-aminoethylamino)-5-(trifluoromethyl)phenoxy)phenyl)ureido)-5-(trifluoromethyl)phenylcarbamoyl)butyl) guanidine] | 0.78 µg/mL (≈ 1.07 µM) | 1.56 µg/mL (≈ 2.14 µM) | 1.56 µg/mL (≈ 2.14 µM) | 3.13 µg/mL (≈ 4.29 µM) | 0.195 µg/mL (≈ 0.267 µM) | 61.8 µg/mL (≈ 84.7 µM) | 52.6 µg/mL (≈ 72.1 µM) |  |
| N=C(N)NCCCCC(=O)Nc1cc(C(F)(F)F)cc(NC(=O)Nc2ccc(Oc3cc(NCCN)cc(C(F)(F)F)c3)cc2)c1O[C@@H]1CCNC1 [Compound 104] | 3.13 µg/mL (≈ 4.23 µM) | 3.13 µg/mL (≈ 4.23 µM) | 3.13 µg/mL (≈ 4.23 µM) | 6.25 µg/mL (≈ 8.45 µM) | 0.049 µg/mL (≈ 0.0662 µM) | 148 µg/mL (≈ 200 µM) | 82.7 µg/mL (≈ 112 µM) |  |
| N=C(N)NCCCCC(=O)Nc1cc(C(F)(F)F)cc(NC(=O)Nc2ccc(Oc3cc([N+](=O)[O-])cc(C(F)(F)F)c3)cc2)c1SCCN [Compound 100, (4-(2-(2-aminoethylthio)-3-(3-(4-(3-(trifluoromethyl)-5-nitrophenoxy)phenyl)ureido)-5-(trifluoromethyl)phenylcarbamoyl)butyl)guanidine] | 50 µg/mL (≈ 69.8 µM) | 50 µg/mL (≈ 69.8 µM) | 50 µg/mL (≈ 69.8 µM) | 50 µg/mL (≈ 69.8 µM) | 25 µg/mL (≈ 34.9 µM) | 396 µg/mL (≈ 553 µM) | 56.2 µg/mL (≈ 78.4 µM) |  |

Second part, led by results:

| MIC50 (E. Coli ATCC 25922) | MIC50 [1] | MIC50 [2] | MIC50 [3] | MIC50 [4] | SMILES | EC50 at 1 h ([5]; human, HepG2 cells (HB-8065)) | EC50 at 1 h [5, 6] | MBEC (MRSA ATCC 33591) |
| --- | --- | --- | --- | --- | --- | --- | --- | --- |
| 3.13 µg/mL (≈ 4.43 µM) | 0.78 µg/mL (≈ 1.11 µM) | 3.13 µg/mL (≈ 4.43 µM) | 3.13 µg/mL (≈ 4.43 µM) | 1.56 µg/mL (≈ 2.21 µM) | NCCCc1cc(NC(=O)Nc2cc(C(F)(F)F)c(SCCN)cc2SCCN)ccc1Oc1ccc(NCCN)c(C(F)(F)F)c1 [Compound 113, 1-[4-[4-(2-aminoethylamino)-3-(trifluoromethyl)phenoxy]-3-(3-aminopropyl)phenyl]-3-[2,4-bis(2-aminoethylsulfanyl)-5-(trifluoromethyl)phenyl]urea] | 191 µg/mL (≈ 271 µM) | 142 µg/mL (≈ 201 µM) | 32 µg/mL |
| 3.13 µg/mL (≈ 3.12 µM) | 3.13 µg/mL (≈ 3.12 µM) | 3.13 µg/mL (≈ 3.12 µM) | 12.5 µg/mL (≈ 12.5 µM) | 0.195 µg/mL (≈ 0.195 µM) | N=C(N)NCCCCC(=O)Nc1cc(C(F)(F)F)cc(NC(=O)Nc2ccc3nc(NC(=O)Nc4cc(C(F)(F)F)cc(NC(=O)CCCCNC(=N)N)c4SCCN)sc3c2)c1SCCN [Compound 111, N-[2-(2-aminoethylsulfanyl)-3-[[2-[[2-(2-aminoethylsulfanyl)-3-(5-guanidinopentanoylamino)-5-(trifluoromethyl)phenyl]carbamoylamino]-1,3-benzothiazol-6-yl]carbamoylamino]-5-(trifluoromethyl)phenyl]-5-guanidino-pentanamide] | 54 µg/mL (≈ 53.9 µM) | 50.1 µg/mL (≈ 50 µM) |  |
| 1.56 µg/mL (≈ 2.22 µM) | 1.56 µg/mL (≈ 2.22 µM) | 3.13 µg/mL (≈ 4.45 µM) | 6.25 µg/mL (≈ 8.89 µM) | 0.098 µg/mL (≈ 0.139 µM) | N=C(N)NCCCC(=O)Nc1cc(C(F)(F)F)cc(NC(=O)Nc2ccc3nc(-c4ccc(NCCCN)cc4)sc3c2)c1SCCN [Compound 110, N-[2-(2-aminoethylsulfanyl)-3-[[2-[4-(3-aminopropylamino)phenyl]-1,3-benzothiazol-6-yl]carbamoylamino]-5-(trifluoromethyl)phenyl]-4-guanidino-butanamide] | 49.9 µg/mL (≈ 71 µM) | 50.7 µg/mL (≈ 72.1 µM) |  |
